From US11472723B2, “Method for removing heavy metals from an aqueous solution” (NEWSOUTH INNOVATIONS PTY LIMITED, priority 2016, dated 2022)
Converted amounts (≈) assume the structure as drawn. “And” between values parts separate entries of the source, which are not always exact repeats. Equal entries are not always repeated. Where two headings read alike, the source gives them in different places. Marks after values point to notes of the source that are not given here.

Legend:
Foaming test = type: physicochemical; conditions: about one tenth of CMC in water, shaken with air, Passed/Failed
Experimental: A foaming test was performed by dissolving the test compound in water at a concentration of approximately one tenth of the CMC of the test compound. The solution was then placed in a stoppered vessel with air and shaken and a visual observation made as to whether a stable foam had been formed.

[1] = Critical micelle concentration (CMC) in water; type: physicochemical
Description: In the bulk aqueous phase, surfactants form aggregates, such as micelles, at concentrations above the critical micelle concentration (CMC), where the hydrophobic tails form the core of the aggregate and the hydrophilic heads are in contact with the surrounding liquid. The CMC of a surfactant in an aqueous solution can be determined by a person skilled in the art using techniques known in the art. For example, the CMC of a surfactant can be determined by measuring changes in the conductance or surface tension of the solution at different concentrations of the surfactant.

[2] = literature value (footnotes a-d); cited from earlier work
Solubility in water = conditions: for Solubility in water up to minimum 0.01M: Yes/No
Description: The synthesized surfactants were compared to each other with respect to their water solubility, conductivity, critical micelle concentration and foaming ability to determine basic suitability for the ion flotation process.

[3] = Ion flotation of arsenic solution in bubble column, As by ICP-MS; conditions: for Arsenic removal after 90 minutes / arsenic removal: flotation; for Arsenic removal after 90 minutes: 5 ppm arsenic solution; for arsenic removal / Adsorption (%): time not stated
Experimental: (§1) An ICP-MS (Perkin Elmer, NexION 300D with Universal cell technology) was used to determine the arsenic, mercury and lead solution concentrations.
In a typical experiment, 0.01 M of the single chain octanoyl-cysteine surfactant was dissolved (with stirring and heating to not more than 65° C.) in a solution of arsenic (HAsO4^2−) 5 ppm containing NaOH 0.1 M (to keep the pH at about 8), which was then made up to 100 ml using Milli-Q water.
Two samples were taken after 30, 60 and 90 minutes and the arsenic concentration of each sample was determined by ICP-MS. The upper outlet foam was also collected in a waste container using an outlet tube. […]

[4] = Ion flotation of lead ions with octanoyl-cysteine surfactant; conditions: 5 ppm Pb, 0.01M surfactant
Experimental: as §1
(§2) In similar ion flotation experiments, the removal rates for low levels of mercury and lead ions were also determined using the octanoyl-cysteine surfactant. The experiments were carried out using both air and pure N2 gas.

[5] = Ion flotation of mercury ions with octanoyl-cysteine surfactant; conditions: 5 ppm Hg, 0.01M surfactant
Experimental: as §1, §2

[6] = for As(III) / As(V) / Total As removal / Total As(V) reduced to As(III) / Total conc.: feed 5320.6 μg/L, 0.01M surfactant
Experimental: The As(V)/As(III) speciation measurements were carried out using a PE 200 Series HPLC, using a PRPX 100 Column, attached to a PE DRC-e (Dynamic Reaction Cell-e) ICPMS. 20 milli molar ammonium phosphate buffer was used as carrier solution at 1.5 ml/min with a matched Meinhart nebuliser and baffled spray chamber. The plasma conditions used were: 1500 W RF, at a gas flow rate of […].
Column solution samples after 30 minutes, and the solution remaining inside the column after 90 minutes, were sent for arsenic speciation determination analysis. It appears that after about half an hour the maximum adsorption of arsenic was obtained because no further foam was collected at the top of the column.

[7] = 5 ppm As, 0.01M surfactant, inlet gas Air
[8] = As in the waste collector (after 30 mins.)
[9] = As remaining in the flotation cell (after 90 mins)

SMILES: CCCCCCCCCCCC(=O)N[C@@H](CS)C(=O)O
- Foaming test (Foaming test): Passed
- CMC (in words) [1]: low CMC values
- CMC in water (M) [2]: 0.02 × 10^−3*^d M
- solubility in water (in words) (Solubility in water): low solubility in water
- Solubility in water up to minimum 0.01M (Solubility in water): No
- solubility (Solubility in water; water): 300 µM (≈ 91 µg/mL)

SMILES: CCCCCCCCNC(=O)N[C@@H](CSSC[C@H](NC(=O)NCCCCCCCC)C(=O)O)C(=O)O [D-octyl isocyanate cystine]
- Foaming test (Foaming test): Failed
- Foaming test (Foaming test; listed as double chain-octyl isocyanate cystine): produced no foaming in solution
- CMC (in words) [1]: acceptably high CMC values
- CMC in water (M) [2]: 0.008*^c M

SMILES: CCCCCCCCSC[C@H](N)C(=O)O [S-octyl cysteine, reference compound]
- Adsorption after 30 min (%) ([3]; 100 ml of 5 ppm arsenic solution, surfactant 0.001 M (D-dodecanoyl cystine 0.01 × 10^−3 M)): 0%
- Arsenic removal after 90 minutes [3]: 0%
- arsenic removal [3]: no arsenic removal was observed
- Foaming test (Foaming test): Failed
- Foaming test (Foaming test; listed as single chain octyl based cysteine surfactant): failed the foaming test
- CMC (in words) [1]: high CMC
- CMC in water (M) [2]: 0.006*^b M
- solubility in water (in words) (Solubility in water): good solubility
- Solubility in water up to minimum 0.01M (Solubility in water): Yes

SMILES: CCCCCCCC(=O)N[C@@H](CS)C(=O)O [octanoyl-cysteine]
- Adsorption after 30 min (%) [3, 7]: 72.6%
- Adsorption after 60 min (%) [3, 7]: 99.88%
- Adsorption (%) ([3]; 100 ml of 5 ppm arsenic solution, purified product, Air): 99.9 (Air) %
- Adsorption (%) ([3]; 100 ml of 5 ppm arsenic solution, purified product, N2 gas, listed as single chain octanoyl cysteine): 98.6 (N2) % and 99.4 (N2) %
- Adsorption (%) ([3]; 100 ml of 5 ppm arsenic solution, raw product, N2 gas, listed as single chain octanoyl cysteine): 93.8 (N2) % and 88.2 (N2) %
- Arsenic removal after 90 minutes [3]: 99.4%
- arsenic removal [3]: 99.00%
- average removal of arsenic ([3]; tests 1 and 2, raw unpurified product, 5 ppm feeding solution, after 90 minutes): 91.00%
- average removal of arsenic ([3]; tests 3 and 4, purified (2 times recrystallized) product, after 30 minutes): 99.00%
- Adsorption after 30 min (%) ([4]; inlet gas Air): 92%
- Adsorption after 60 min (%) ([4]; inlet gas Air): 99.1%
- Adsorption after 30 min (%) ([4]; inlet gas N2): 94.9%
- Adsorption after 60 min (%) ([4]; inlet gas N2): 99.4%
- Adsorption after 30 min (%) ([5]; inlet gas Air): 99.6%
- Adsorption after 60 min (%) ([5]; inlet gas Air): 99.6%
- Adsorption after 30 min (%) ([5]; inlet gas N2): 99.59%
- Adsorption after 60 min (%) ([5]; inlet gas N2): 99.96%
- As(III) [6, 8]: 5259.4 µg/L
- As(V) [6, 8]: 27.9 µg/L
- Total As removal [6, 8]: 99.38%
- Total As(V) reduced to As(III) [6, 8]: 99.47%
- Total conc. [6, 8]: 5287.4 µg/L
- Total As(V) reduced to As(III) ([6]; As in the waste collector (after 30 mins.), listed as single chain octanoyl-cysteine): about 99.47%
- As(III) [6, 9]: 6.2 µg/L
- As(V) [6, 9]: 27.1 µg/L
- Total As removal [6, 9]: 99.38%
- Total As(V) reduced to As(III) [6, 9]: 99.49%
- Total conc. [6, 9]: 33.2 µg/L
- Total As removal ([6]; As remaining in the flotation cell (after 90 mins), listed as single chain octanoyl-cysteine): 99.38%
- As (V) remaining in the column reduced to As (III) ([6]; between the first 30 mins and 90 minutes, samples from inside the column): 0.02%
- Foaming test (Foaming test): Passed
- CMC in water (M) [2]: 0.12*^a M
- Solubility in water up to minimum 0.01M (Solubility in water): Yes
